Data on 2 compounds can be found in ChEMBL document CHEMBL5291721, “A preclinical secondary pharmacology resource illuminates target-adverse drug reaction associations of marketed drugs” (Nat Commun, 2023).

Molecules are shown by their SMILES.

The AC50 is the concentration at which the activity in the assay is half-maximal.

In test [1] the target is T1, Muscarinic acetylcholine receptor M2 (Homo sapiens, UniProt P08172).
T1 sequence (P08172 whole entry): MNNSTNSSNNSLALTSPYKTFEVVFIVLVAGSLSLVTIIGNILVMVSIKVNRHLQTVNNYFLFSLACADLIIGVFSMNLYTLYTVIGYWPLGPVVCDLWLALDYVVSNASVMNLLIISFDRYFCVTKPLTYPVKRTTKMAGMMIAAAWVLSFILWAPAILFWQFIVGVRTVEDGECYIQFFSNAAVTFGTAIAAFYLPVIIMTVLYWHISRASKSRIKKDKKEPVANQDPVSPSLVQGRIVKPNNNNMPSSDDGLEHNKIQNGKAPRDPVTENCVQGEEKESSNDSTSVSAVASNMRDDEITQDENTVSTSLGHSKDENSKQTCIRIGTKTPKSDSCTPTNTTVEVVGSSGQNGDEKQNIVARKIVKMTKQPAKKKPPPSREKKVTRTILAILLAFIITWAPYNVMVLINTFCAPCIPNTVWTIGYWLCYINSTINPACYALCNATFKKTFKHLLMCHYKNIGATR
Format: functional, cell-based.

The target of test [2] is T2, Amine oxidase [flavin-containing] A (Homo sapiens, UniProt P21397).
T2 sequence (P21397 whole entry): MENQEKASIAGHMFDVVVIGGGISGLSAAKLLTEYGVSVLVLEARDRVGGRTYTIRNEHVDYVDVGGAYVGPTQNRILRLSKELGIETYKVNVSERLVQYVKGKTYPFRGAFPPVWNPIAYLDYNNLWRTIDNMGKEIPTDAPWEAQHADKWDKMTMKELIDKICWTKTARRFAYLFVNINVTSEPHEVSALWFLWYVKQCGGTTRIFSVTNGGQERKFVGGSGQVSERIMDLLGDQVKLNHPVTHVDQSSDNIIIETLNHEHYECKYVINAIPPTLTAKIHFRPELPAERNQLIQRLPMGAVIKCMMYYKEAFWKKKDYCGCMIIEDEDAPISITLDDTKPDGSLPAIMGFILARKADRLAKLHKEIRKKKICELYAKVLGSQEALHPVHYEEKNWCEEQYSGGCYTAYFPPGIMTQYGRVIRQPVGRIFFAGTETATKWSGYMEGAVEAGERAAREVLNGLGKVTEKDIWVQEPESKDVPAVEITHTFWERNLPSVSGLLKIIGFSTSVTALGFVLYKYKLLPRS
Format: functional.

The next test deals with T3, Thromboxane A2 receptor (Homo sapiens, UniProt P21731).
T3 sequence (P21731 whole entry): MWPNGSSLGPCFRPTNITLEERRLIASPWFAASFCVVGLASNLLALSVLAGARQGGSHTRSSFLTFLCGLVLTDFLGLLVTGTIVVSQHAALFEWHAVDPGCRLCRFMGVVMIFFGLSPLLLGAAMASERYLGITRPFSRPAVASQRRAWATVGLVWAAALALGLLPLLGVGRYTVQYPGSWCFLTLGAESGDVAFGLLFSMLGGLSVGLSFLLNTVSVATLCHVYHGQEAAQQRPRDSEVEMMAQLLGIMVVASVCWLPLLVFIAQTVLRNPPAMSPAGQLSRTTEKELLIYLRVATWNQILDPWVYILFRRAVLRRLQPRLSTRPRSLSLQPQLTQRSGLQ

The next test has as its target T4, Progesterone receptor (Homo sapiens, UniProt P06401).
T4 sequence (P06401 whole entry): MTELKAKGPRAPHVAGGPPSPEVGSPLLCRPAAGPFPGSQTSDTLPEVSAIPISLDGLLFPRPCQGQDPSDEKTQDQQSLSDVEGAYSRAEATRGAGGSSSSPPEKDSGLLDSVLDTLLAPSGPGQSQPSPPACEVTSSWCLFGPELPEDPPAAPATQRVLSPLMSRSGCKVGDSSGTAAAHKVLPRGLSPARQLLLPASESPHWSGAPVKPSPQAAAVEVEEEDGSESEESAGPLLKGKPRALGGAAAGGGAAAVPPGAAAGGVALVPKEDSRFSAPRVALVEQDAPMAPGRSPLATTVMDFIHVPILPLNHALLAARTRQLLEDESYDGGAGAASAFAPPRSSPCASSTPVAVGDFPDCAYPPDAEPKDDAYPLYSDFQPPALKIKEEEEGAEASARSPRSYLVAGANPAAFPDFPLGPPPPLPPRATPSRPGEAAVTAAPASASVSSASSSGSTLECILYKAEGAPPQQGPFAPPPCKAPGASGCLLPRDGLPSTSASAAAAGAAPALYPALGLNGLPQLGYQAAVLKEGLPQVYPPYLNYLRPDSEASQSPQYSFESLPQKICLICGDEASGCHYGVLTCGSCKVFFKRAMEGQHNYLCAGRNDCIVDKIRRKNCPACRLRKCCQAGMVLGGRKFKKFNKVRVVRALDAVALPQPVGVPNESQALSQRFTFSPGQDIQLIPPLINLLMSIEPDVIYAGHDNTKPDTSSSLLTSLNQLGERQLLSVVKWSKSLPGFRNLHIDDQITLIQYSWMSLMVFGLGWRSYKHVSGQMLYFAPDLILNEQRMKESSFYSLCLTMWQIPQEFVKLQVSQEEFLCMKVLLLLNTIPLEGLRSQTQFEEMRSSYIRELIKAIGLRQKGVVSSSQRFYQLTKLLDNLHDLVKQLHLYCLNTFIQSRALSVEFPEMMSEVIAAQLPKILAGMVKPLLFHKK
Format: functional.

The target of test [3] is T5, 5-hydroxytryptamine receptor 2C (Homo sapiens, UniProt P28335).
T5 sequence (P28335 whole entry): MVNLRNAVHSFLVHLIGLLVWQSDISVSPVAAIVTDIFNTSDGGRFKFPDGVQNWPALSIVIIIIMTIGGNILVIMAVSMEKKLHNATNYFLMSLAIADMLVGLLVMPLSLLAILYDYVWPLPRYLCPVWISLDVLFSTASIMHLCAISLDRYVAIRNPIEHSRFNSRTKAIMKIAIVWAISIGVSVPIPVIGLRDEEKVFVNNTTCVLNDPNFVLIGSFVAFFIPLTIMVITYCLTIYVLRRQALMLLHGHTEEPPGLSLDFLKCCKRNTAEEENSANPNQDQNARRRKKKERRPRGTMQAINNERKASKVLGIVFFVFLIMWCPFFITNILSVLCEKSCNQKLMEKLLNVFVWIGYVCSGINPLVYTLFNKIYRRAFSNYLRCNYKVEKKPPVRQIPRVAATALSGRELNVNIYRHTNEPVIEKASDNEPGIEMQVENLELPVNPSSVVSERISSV

In test [4] the target is Kappa-type opioid receptor (Homo sapiens, UniProt P41145).
Sequence of Kappa-type opioid receptor (P41145 whole entry): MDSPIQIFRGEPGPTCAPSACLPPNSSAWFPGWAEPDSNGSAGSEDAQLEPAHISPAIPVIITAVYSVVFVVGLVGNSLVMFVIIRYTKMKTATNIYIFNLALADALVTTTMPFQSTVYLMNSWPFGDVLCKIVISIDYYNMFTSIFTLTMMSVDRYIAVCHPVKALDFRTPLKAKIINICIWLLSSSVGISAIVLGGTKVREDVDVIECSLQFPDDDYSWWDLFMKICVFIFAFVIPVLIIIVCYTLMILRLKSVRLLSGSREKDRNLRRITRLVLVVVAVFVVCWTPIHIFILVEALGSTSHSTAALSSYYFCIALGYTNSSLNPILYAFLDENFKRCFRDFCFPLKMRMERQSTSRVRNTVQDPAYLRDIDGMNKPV
Test [5] concerns the target Voltage-dependent L-type calcium channel subunit alpha-1C (Rattus norvegicus, UniProt P22002). It counts as functional.
Another test addresses Motilin receptor (Homo sapiens, UniProt O43193).
Note: assay procedure not described here.

Sequence of Voltage-dependent L-type calcium channel subunit alpha-1C (P22002 whole entry): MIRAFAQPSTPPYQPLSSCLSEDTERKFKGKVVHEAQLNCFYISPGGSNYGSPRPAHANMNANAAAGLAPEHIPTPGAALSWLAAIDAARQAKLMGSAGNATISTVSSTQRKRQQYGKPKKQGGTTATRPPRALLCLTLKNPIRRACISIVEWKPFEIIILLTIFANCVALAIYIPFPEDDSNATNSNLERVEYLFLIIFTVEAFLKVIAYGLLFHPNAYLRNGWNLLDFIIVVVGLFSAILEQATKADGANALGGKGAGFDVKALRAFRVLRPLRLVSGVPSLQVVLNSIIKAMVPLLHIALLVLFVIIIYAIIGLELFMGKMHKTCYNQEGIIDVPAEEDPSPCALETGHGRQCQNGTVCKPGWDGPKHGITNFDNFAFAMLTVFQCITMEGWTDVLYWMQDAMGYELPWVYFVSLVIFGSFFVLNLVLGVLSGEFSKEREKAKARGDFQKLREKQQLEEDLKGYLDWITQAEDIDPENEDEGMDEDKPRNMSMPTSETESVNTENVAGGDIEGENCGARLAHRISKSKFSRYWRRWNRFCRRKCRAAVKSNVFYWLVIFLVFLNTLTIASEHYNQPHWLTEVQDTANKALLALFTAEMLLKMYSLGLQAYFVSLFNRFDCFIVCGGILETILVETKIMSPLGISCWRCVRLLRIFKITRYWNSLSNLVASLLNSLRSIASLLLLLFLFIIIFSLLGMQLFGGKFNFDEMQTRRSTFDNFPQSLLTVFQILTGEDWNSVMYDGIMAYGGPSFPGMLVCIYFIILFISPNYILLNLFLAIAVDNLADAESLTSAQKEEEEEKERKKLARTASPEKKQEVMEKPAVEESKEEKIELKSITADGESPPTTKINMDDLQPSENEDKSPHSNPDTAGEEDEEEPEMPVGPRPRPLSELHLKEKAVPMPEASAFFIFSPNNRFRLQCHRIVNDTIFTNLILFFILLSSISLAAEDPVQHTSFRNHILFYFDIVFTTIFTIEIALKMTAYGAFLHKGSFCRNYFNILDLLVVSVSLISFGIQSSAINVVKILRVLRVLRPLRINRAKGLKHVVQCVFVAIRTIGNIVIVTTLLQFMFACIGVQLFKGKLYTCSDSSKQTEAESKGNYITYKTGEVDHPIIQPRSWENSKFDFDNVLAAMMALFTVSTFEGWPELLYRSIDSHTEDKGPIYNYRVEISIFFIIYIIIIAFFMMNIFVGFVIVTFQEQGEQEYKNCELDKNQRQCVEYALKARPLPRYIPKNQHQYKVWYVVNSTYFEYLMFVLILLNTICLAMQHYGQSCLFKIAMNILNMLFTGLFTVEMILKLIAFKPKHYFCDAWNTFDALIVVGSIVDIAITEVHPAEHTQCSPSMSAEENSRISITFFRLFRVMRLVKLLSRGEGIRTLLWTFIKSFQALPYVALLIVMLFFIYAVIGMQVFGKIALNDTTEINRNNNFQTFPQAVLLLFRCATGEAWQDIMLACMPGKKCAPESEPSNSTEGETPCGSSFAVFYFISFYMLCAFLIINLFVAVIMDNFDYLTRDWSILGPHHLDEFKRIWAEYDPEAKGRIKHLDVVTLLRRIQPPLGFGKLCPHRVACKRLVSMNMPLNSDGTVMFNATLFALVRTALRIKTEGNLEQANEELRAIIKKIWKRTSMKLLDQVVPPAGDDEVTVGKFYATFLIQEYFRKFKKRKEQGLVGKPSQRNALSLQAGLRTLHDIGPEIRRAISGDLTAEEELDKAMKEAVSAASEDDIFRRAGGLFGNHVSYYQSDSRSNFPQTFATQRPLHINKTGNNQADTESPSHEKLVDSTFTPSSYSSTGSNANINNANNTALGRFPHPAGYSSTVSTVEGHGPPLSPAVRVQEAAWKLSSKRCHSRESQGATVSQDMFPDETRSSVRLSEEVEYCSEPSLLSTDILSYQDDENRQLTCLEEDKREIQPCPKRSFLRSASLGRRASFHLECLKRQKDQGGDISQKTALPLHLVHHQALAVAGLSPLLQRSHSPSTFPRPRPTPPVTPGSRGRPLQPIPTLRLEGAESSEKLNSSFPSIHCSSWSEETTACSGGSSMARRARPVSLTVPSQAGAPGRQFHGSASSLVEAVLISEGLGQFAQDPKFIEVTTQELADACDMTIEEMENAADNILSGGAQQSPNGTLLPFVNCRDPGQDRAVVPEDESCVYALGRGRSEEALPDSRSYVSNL
Sequence of Motilin receptor (O43193 whole entry): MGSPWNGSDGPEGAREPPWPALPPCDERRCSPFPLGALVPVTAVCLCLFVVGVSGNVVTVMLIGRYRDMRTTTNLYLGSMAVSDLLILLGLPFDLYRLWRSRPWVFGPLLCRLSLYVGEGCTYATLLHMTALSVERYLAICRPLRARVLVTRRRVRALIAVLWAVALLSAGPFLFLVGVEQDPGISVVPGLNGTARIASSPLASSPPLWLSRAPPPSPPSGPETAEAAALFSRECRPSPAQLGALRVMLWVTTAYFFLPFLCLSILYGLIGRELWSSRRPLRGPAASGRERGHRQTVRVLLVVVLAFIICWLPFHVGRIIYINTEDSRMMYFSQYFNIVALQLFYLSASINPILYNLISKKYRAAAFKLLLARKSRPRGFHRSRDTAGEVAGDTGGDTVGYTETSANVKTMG

For the compound `C[C@@H]1O[C@@H](O[C@@H]2C=C3CC[C@@H]4[C@H](CC[C@]5(C)[C@@H](c6ccc(=O)oc6)CC[C@]45O)[C@@]3(C)CC2)[C@H](O)[C@H](O)[C@H]1O` [PROSCILLARIDIN], the AC50 (in test [1]; in test [2]; at Thromboxane A2 receptor; on Progesterone receptor; in test [3]; in test [4]) was over 30 µM throughout. Also, the AC50 (in test [5]; at Motilin receptor) was over 30 µM each time.
Consider `C#C[C@]1(O)CC[C@H]2[C@@H]3[C@H](C)CC4=C(CCC(=O)C4)[C@H]3CC[C@@]21C` [TIBOLONE], for which the AC50 in test [1] was over 30 µM; in test [2] it was over 30 µM; at Thromboxane A2 receptor it was over 30 µM; at Progesterone receptor, 0.4 µM; in test [3] it was over 30 µM; in test [4], 19 µM. The AC50 (in test [5]; on Motilin receptor) was over 30 µM each time.
